Measured values taken from ChEMBL document CHEMBL1144985, “Rational design, synthesis and structure-activity relationships of a cyclic succinate series of TNF-alpha converting enzyme inhibitors. Part 2: lead optimization” (Bioorg Med Chem Lett, 2003).
Values after ≈ are worked out from the molar mass of the structure shown.

Columns and labels:
[1] = biological target: 72 kDa type IV collagenase (Homo sapiens, UniProt P08253); assay: Inhibitory activity against matrix metalloprotease-2 (MMP-2)
[2] = biological target: Disintegrin and metalloproteinase domain-containing protein 17 (Sus scrofa, UniProt O77636); assay: In vitro binding affinity against porcine TACE
Interstitial collagenase = biological target: T1, Interstitial collagenase (Homo sapiens, UniProt P03956); assay: Inhibitory activity against matrix metalloprotease-1 (MMP-1)
T1 sequence (P03956 whole entry): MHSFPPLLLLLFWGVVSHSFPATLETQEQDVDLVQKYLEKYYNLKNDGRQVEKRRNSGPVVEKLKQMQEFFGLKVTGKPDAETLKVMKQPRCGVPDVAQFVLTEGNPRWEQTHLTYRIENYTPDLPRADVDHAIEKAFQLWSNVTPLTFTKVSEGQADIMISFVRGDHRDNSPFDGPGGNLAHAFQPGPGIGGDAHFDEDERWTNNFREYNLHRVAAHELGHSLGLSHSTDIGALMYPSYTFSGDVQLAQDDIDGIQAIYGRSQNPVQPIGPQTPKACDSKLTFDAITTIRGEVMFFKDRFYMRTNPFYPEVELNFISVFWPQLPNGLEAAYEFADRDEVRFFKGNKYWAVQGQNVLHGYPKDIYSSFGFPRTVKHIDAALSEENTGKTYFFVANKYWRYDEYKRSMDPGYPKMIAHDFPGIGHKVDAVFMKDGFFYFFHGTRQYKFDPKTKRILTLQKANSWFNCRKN

Homo sapiens = species on record: Homo sapiens; assay: In vitro inhibition of TNF-alpha production was determined by using LPS-stimulated human whole blood assay (WBA); type: functional
[3] = biological target: Matrix metalloproteinase-9 (Homo sapiens, UniProt P14780); assay: Inhibitory activity against matrix metalloprotease-9 (MMP-9)
Caco-2 = conditions: Homo sapiens
Description: Caco-2 permeability was determined

[4] = Solubility was determined

72 kDa type IV collagenase, sequence (P08253 whole entry, the tested form may be a part): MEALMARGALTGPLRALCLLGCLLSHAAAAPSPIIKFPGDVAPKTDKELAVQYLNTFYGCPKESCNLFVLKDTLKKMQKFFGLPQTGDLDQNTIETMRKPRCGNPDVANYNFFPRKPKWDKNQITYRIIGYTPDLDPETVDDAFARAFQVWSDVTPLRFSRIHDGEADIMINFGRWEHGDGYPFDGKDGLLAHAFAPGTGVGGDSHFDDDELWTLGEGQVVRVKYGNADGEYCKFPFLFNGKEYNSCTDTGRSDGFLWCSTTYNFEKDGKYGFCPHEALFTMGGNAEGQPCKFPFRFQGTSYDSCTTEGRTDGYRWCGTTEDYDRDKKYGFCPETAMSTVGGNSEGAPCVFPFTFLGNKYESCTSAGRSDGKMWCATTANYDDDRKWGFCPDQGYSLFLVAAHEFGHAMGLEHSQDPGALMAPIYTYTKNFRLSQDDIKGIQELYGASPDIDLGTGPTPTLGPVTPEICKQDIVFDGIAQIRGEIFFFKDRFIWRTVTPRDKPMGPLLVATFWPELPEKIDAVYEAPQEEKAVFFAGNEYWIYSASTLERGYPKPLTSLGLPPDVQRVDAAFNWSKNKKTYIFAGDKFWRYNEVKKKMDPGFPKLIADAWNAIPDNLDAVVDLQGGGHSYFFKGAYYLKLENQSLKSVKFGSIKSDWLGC
Disintegrin and metalloproteinase domain-containing protein 17, sequence (O77636 whole entry, the tested form may be a part): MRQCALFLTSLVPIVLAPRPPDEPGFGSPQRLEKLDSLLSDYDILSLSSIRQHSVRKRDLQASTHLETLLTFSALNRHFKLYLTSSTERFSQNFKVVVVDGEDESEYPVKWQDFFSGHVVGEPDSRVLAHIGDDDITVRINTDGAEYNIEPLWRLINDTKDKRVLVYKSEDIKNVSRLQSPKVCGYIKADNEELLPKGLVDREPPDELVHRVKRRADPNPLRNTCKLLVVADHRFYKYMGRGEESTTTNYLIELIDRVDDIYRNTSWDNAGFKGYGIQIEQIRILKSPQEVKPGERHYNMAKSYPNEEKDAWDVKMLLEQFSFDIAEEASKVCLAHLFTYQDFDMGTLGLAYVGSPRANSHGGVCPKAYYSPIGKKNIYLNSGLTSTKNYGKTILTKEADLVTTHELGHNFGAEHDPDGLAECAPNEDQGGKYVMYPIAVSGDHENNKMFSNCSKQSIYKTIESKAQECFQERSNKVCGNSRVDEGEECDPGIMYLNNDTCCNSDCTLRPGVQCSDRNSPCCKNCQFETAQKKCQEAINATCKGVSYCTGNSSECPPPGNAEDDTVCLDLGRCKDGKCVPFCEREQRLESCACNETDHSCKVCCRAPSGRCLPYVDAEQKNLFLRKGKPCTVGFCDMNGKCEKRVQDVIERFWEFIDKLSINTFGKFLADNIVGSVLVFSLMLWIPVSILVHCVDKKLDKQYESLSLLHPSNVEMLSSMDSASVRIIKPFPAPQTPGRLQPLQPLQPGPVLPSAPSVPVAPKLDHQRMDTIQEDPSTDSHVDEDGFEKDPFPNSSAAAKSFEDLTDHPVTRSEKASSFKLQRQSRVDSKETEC
Matrix metalloproteinase-9, sequence (P14780 whole entry): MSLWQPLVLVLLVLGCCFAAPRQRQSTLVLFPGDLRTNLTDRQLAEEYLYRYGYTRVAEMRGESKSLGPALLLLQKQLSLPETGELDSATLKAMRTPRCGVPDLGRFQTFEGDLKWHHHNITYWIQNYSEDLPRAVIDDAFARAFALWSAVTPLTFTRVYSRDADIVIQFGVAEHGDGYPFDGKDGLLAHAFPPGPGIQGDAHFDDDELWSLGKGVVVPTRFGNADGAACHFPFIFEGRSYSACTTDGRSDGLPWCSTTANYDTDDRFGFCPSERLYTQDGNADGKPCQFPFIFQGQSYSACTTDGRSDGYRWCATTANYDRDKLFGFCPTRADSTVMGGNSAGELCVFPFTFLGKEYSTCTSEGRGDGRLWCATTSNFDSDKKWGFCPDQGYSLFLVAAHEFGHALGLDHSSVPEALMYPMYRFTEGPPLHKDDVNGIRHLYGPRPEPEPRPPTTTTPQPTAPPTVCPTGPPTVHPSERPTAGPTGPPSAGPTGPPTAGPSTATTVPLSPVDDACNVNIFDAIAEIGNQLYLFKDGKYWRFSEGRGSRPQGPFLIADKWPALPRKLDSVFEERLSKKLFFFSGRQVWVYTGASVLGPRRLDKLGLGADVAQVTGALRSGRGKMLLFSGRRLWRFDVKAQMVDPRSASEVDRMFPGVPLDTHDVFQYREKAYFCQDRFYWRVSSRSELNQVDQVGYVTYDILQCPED

Ki [1] | IC50 [2] | Ki (Interstitial collagenase) | IC50 (Homo sapiens) | Ki [3] | solubility [4] | SMILES | Papp (Caco-2)
> 3330 nM | 5 nM | > 4950 nM | 100 nM | > 2130 nM |  | Cc1cc(COc2ccc(NC(=O)[C@H]3CN(C)CC[C@@H]3C(=O)NO)cc2)c2ccccc2n1 | 
771 nM | 0.44 nM | > 4950 nM | 210 nM | 252 nM |  | Cc1cc(COc2ccc(NC(=O)[C@H]3CCN(C(=O)OC(C)C)C[C@@H]3C(=O)NO)cc2)c2ccccc2n1 | 
> 3330 nM | 1 nM | > 4950 nM | 1400 nM | > 2130 nM |  | Cc1cc(COc2ccc(NC(=O)[C@@H]3[C@@H](C(=O)NO)CCCN3Cc3nccs3)cc2)c2ccccc2n1 | 
> 3330 nM | 1 nM | > 4950 nM | 1300 nM | > 2130 nM |  | O=C(NO)[C@H]1CN(C(=O)C2CC2)CC[C@@H]1C(=O)Nc1ccc(OCc2ccnc3ccccc23)cc1 | 
> 3330 nM | 1 nM | > 4950 nM | 400 nM | > 2130 nM |  | Cc1cc(COc2ccc(NC(=O)[C@@H]3[C@@H](C(=O)NO)CCCN3CC3CC3)cc2)c2ccccc2n1 | 
> 3330 nM | 8 nM | > 4950 nM | 100 nM | > 2130 nM | > 10000 µg/mL | CCN1CCC[C@H](C(=O)NO)[C@H]1C(=O)Nc1ccc(OCc2cc(C)nc3ccccc23)cc1 | 
> 3330 nM | 1.5 nM | > 4950 nM | 4300 nM | > 2130 nM | > 10000 µg/mL | Cc1cc(COc2ccc(NC(=O)[C@H]3CCNC[C@@H]3C(=O)NO)cc2)c2ccccc2n1 | 
> 3330 nM | 3 nM | > 4950 nM | 530 nM | > 2130 nM | > 10000 µg/mL | Cc1cc(COc2ccc(NC(=O)[C@H]3CNCC[C@@H]3C(=O)NO)cc2)c2ccccc2n1 | 
> 3330 nM | 1 nM | > 4950 nM | 300 nM | > 2130 nM | > 10000 µg/mL | Cc1cc(COc2ccc(NC(=O)[C@H]3CN(CC4CC4)CC[C@@H]3C(=O)NO)cc2)c2ccccc2n1 | 
656 nM | 0.48 nM | > 4950 nM | 1360 nM | 306 nM |  | Cc1cc(COc2ccc(NC(=O)[C@H]3CCN(S(C)(=O)=O)C[C@@H]3C(=O)NO)cc2)c2ccccc2n1 | 
> 3330 nM |  | > 4950 nM | > 50000 nM | > 2130 nM |  | O=C(NO)[C@H]1CCCC[C@@H]1C(=O)Nc1ccc(COc2ccnc3ccccc23)cc1 | 
> 3330 nM | 0.22 nM | > 4950 nM | 270 nM | > 2130 nM | 30 µg/mL (≈ 59.5 µM) | Cc1cc(COc2ccc(NC(=O)[C@H]3CCN(C(=O)C(C)C)C[C@@H]3C(=O)NO)cc2)c2ccccc2n1 | 0.3 10e-6 cm s-1
> 3330 nM | 6.2 nM | > 4950 nM | 20 nM | > 2130 nM |  | Cc1cc(COc2ccc(NC(=O)[C@@H]3[C@@H](C(=O)NO)CCCN3C)cc2)c2ccccc2n1 | 
> 3330 nM | 3.2 nM | > 4950 nM | 2600 nM | > 2130 nM |  | CC(=O)N1CC[C@H](C(=O)Nc2ccc(COc3ccnc4cc(C(F)(F)F)ccc34)cc2)[C@@H](C(=O)NO)C1 | 
> 3330 nM | 0.8 nM | > 4950 nM | 700 nM | > 2130 nM |  | O=C(NO)[C@H]1CN(C(=O)c2ccco2)CC[C@@H]1C(=O)Nc1ccc(COc2ccnc3ccccc23)cc1 | 
> 3330 nM | 0.26 nM | > 4950 nM | 330 nM | > 2130 nM |  | CCCC(=O)N1CC[C@H](C(=O)Nc2ccc(OCc3cc(C)nc4ccccc34)cc2)[C@@H](C(=O)NO)C1 | 
1110 nM | 0.28 nM | > 4950 nM | 570 nM | 767 nM |  | COC(=O)N1CC[C@H](C(=O)Nc2ccc(OCc3cc(C)nc4ccccc34)cc2)[C@@H](C(=O)NO)C1 | 
> 3330 nM | 0.41 nM | > 4950 nM | 560 nM | > 2130 nM |  | Cc1cc(COc2ccc(NC(=O)[C@H]3CCN(C(=O)NC(C)(C)C)C[C@@H]3C(=O)NO)cc2)c2ccccc2n1 | 
> 3330 nM | 1.2 nM | > 4950 nM | 1200 nM | > 2130 nM | > 10000 µg/mL | Cc1cc(COc2ccc(NC(=O)[C@H]3CCN(C(C)C)C[C@@H]3C(=O)NO)cc2)c2ccccc2n1 | 
> 3330 nM | 3 nM | > 4950 nM | 3400 nM | > 2130 nM |  | Cc1cc(OCc2ccc(NC(=O)[C@H]3CCN(C(=O)c4ccco4)C[C@@H]3C(=O)NO)cc2)c2ccccc2n1 | 
> 3330 nM | 1 nM | > 4950 nM | 560 nM | > 2130 nM |  | CC(=O)N1CC[C@H](C(=O)Nc2ccc(COc3ccnc4ccccc34)cc2)[C@@H](C(=O)NO)C1 | 
> 3330 nM | > 1000 nM | > 4950 nM | > 50000 nM | > 2130 nM |  | O=C(NO)[C@H]1CN(C(=O)C2CC2)CC[C@@H]1C(=O)Nc1ccc(Oc2ccnc3ccccc23)cc1 | 

SMILES | Ki [1] | IC50 [2] | Ki (Interstitial collagenase) | IC50 (Homo sapiens) | Ki [3] | solubility [4] | Papp (Caco-2)
Cc1cc(COc2ccc(NC(=O)[C@H]3CCN(C(=O)OC4CC4)C[C@@H]3C(=O)NO)cc2)c2ccccc2n1 | 642 nM | 0.83 nM | > 4950 nM | 700 nM | 209 nM |  | 
Cc1cc(COc2ccc(NC(=O)[C@H]3CCN(C(=O)C4CC4)C[C@@H]3C(=O)NO)cc2)c2ccccc2n1 | > 2450 nM | 0.45 nM | > 4950 nM | 390 nM | > 1660 nM | 50 µg/mL (≈ 99.5 µM) | 0.2 10e-6 cm s-1
Cc1cc(COc2ccc(NC(=O)[C@H]3CCN(C(=O)c4ccco4)C[C@@H]3C(=O)NO)cc2)c2ccccc2n1 | > 1010 nM | 0.066 nM | > 4950 nM | 170 nM | > 465 nM | 10 µg/mL (≈ 18.9 µM) | 0.1 10e-6 cm s-1
Cc1cc(COc2ccc(NC(=O)[C@H]3CN(Cc4nccs4)CC[C@@H]3C(=O)NO)cc2)c2ccccc2n1 | > 3330 nM | 0.8 nM | > 4950 nM | 560 nM | > 2130 nM |  | 
Cc1cc(COc2ccc(NC(=O)[C@H]3CN(C(=O)c4ccco4)CC[C@@H]3C(=O)NO)cc2)c2ccccc2n1 | > 3330 nM | < 0.3 nM | > 4950 nM | 1300 nM | > 2130 nM | < 100 µg/mL | 0.2 10e-6 cm s-1
Cc1cc(COc2ccc(NC(=O)[C@H]3NCCC[C@@H]3C(=O)NO)cc2)c2ccccc2n1 | > 3330 nM | 1 nM | > 4950 nM | 120 nM | > 2130 nM |  | 
Cc1cc(COc2ccc(NC(=O)[C@H]3CCN(C(=O)OCc4nccs4)C[C@@H]3C(=O)NO)cc2)c2ccccc2n1 | 1540 nM | < 0.3 nM | > 4950 nM | 450 nM | 768 nM |  | 
Cc1cc(COc2ccc(NC(=O)[C@H]3CCN(C(=O)OCc4cscn4)C[C@@H]3C(=O)NO)cc2)c2ccccc2n1 | 476 nM | < 0.3 nM | > 4950 nM | 530 nM | 296 nM |  | 
Cc1cc(COc2ccc(NC(=O)[C@H]3CCN(S(=O)(=O)c4cn(C)cn4)C[C@@H]3C(=O)NO)cc2)c2ccccc2n1 | 1000 nM | 0.31 nM | > 4950 nM | 1500 nM | 366 nM |  | 
O=C(NO)[C@H]1CN(C(=O)C2CC2)CC[C@@H]1C(=O)Nc1ccc(COc2ccnc3ccccc23)cc1 | > 3330 nM | 2 nM | > 4950 nM | 710 nM | > 2130 nM |  | 
Cc1cc(COc2ccc(NC(=O)[C@H]3CCN(C4CCC4)C[C@@H]3C(=O)NO)cc2)c2ccccc2n1 | > 3330 nM | 1.6 nM | > 4950 nM | 1100 nM | > 2130 nM | > 10000 µg/mL | 
